Measured values: PubChem BioAssay (NCI)
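Growth conditions: 96-well plates. Treatment: test compound, 48 hours, 5 concentrations. Analysis: linear interpolation between bracketing concentrations; unreached endpoints set to highest concentration. TGI: concentration producing complete growth inhibition.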 *1 amine or outer side, *2 acyl side, *3 side chain or, on linkers, in order; H or OH if unused. Where a SMILES comes first, the peptide text is derived from it. Bridges are numbered along the chain shown (N, C = ends). [ ]: non-standard residue; d: D form. The star is where a group is joined. ξ: configuration not given here. X34 = O=C(C(CCCCNO[*:3])N[*:1])[*:2]; Fmoc = O=C(OCC1c2ccccc2-c2ccccc21)*; ξW = NC(Cc1c[nH]c2ccccc12)C(=O)O; ξP = O=C(O)C1CCCN1

How the values were obtained:
Assay in all cases: growth of human tumour cells (NCI), 48 h
PC-3 prostate = system: PC-3 prostate
SR leukemia = system: SR leukemia
MDA-MB-231 breast = system: MDA-MB-231 breast
SF-268 CNS = system: SF-268 CNS
LOX IMVI melanoma = system: LOX IMVI melanoma
MALME-3M melanoma = system: MALME-3M melanoma
KM12 colon = system: KM12 colon
UACC-257 melanoma = system: UACC-257 melanoma
DU-145 prostate = system: DU-145 prostate
NCI-H460 lung = system: NCI-H460 lung
SK-MEL-5 melanoma = system: SK-MEL-5 melanoma

Row | SMILES | TGI (PC-3 prostate) [µM] | TGI (SR leukemia) [µM] | TGI (MDA-MB-231 breast) [µM] | TGI (SF-268 CNS) [µM] | TGI (LOX IMVI melanoma) [µM] | TGI (MALME-3M melanoma) [µM] | TGI (KM12 colon) [µM] | TGI (UACC-257 melanoma) [µM] | TGI (DU-145 prostate) [µM] | TGI (NCI-H460 lung) [µM] | TGI (SK-MEL-5 melanoma) [µM]
1 | CC1(C)OCC(COC(=O)C=[N+]=[N-])O1 (stereo not given) | > 100 | > 100 | > 100 | > 100 | > 100 | > 100 | > 100 | > 100 | > 100 | > 100 | > 100
2 | C[C@@]12[C@H]3CC[C@@H]1[C@H](O)C(=O)N2CC3 | > 100 | > 100 | > 100 | > 100 | > 100 | > 100 | > 100 | > 100 | > 100 | > 100 | > 100
3 | Cc1nc2c(sc(=S)n2-c2ccccc2)c2nc3ncccc3n12 | > 100 | > 100 | > 100 | > 100 | > 100 | > 100 | > 100 | > 100 | > 100 | > 100 | > 100
4 | O=C(O)c1c2c(cc3c1CC1(Cc4ccccc4C1)C3)CCC2 | > 100 | > 100 | > 100 | > 100 | 74.4 | > 100 | > 100 | > 100 | > 100 | > 100 | > 100
5 | OC1C2[C@@H](O)CCCN2C[C@@H](O)[C@H]1O (stereo not given in full) | > 100 | > 100 | > 100 | > 100 | > 100 | > 100 | > 100 | > 100 | > 100 | > 100 | > 100
6 | COc1ccccc1N/C(=C\C(=O)C(=O)NC12CC3CC(CC(C3)C1)C2)c1ccccc1 | > 10 | > 10 | > 10 | > 10 | > 10 | > 10 | > 10 | > 10 | > 10 | > 10 | > 10
7 | CC(C)Sc1nc(C#N)cc2c1CCCC2 | > 100 | 79.1 | > 100 | > 100 | 70.3 | > 100 | > 100 | > 100 | > 100 | > 100 | 33.2
8 | CCOc1cc(NC(C)=O)ccc1C(=O)NNC(=O)c1ccccc1OC(C)=O | > 100 | > 34.7 | > 100 | > 100 | > 100 | > 100 | > 100 | 52.5 | > 67.7 | 32.9 | 22.6
9 | Cc1ccc([C@@H]2[C@@H](C(=O)c3ccccn3)[C@H](c3ccc(C)cc3)C[C@](O)(c3ccccn3)[C@H]2C(=O)c2ccccn2)cc1 | > 100 | > 100 | > 100 | > 100 | > 100 | > 100 | > 100 | > 100 | > 100 | 10.7 | > 100
10 | CN1C(=O)N(c2ccccc2)C2(CCN(CC3COc4ccccc4O3)CC2)C1=O (stereo not given) | > 100 | > 100 | > 100 | > 100 | > 100 | > 100 | > 100 | > 100 | > 100 | > 100 | > 100
11 | O=C(Nc1ccc(Br)cc1)c1c(-c2ccccc2)c2ccc(O)cc2oc1=O | > 10 | > 10 | > 10 | > 10 | > 10 | > 10 | > 10 | > 10 | > 10 | > 10 | > 10
12 | COCOC1/C=C/CCCCC2=C(C)C=C(C1)O2 (stereo not given) | > 100 | > 100 | > 100 | > 100 | > 100 | > 100 | > 100 | > 100 | > 100 | > 100 | > 100
13 | COCOC1/C=C/CCCC#C[C@H](C)C(=O)CC1 (stereo not given in full) | 21.5 | > 33.2 | 17 | 26.5 | 11.5 | 19.4 | 17 | 17.8 | 28 | 25.5 | 21.7
14 | O=C(O)c1cc2c(cc1CC(Cc1ccc3c(c1)CCC3)C(=O)O)CCC2 (stereo not given) | > 100 | > 100 | > 100 | > 100 | > 100 | > 100 | > 100 | > 100 | > 100 | > 100 | > 100
15 | NC(=O)CNC(=O)C1CCCN1C(=O)C1CCCCNOC(=O)CC[C@@H](NC(=O)OCC2c3ccccc3-c3ccccc32)C(=O)NC(Cc2c[nH]c3ccccc23)C(=O)N1 (stereo not given in full) (Fmoc-[dE][ξW][X34][ξP]G-NH2; ester 1-3) | > 100 | > 100 | > 100 | > 100 | > 100 | > 100 | > 100 | > 100 | > 100 | > 100 | > 100
